Measurements: BindingDB's records for doi:10.1021/jm9604437 (Hoechst Marion Roussel, 1996)

Tests used:
[1] = target: Dihydroorotate dehydrogenase (quinone), mitochondrial (Mus musculus, UniProt O35435); test: Inhibitory concentration tested on enzyme dihydroorotate dehydrogenase in mouse
[2] = target: Dihydroorotate dehydrogenase (quinone), mitochondrial (Rattus norvegicus, UniProt Q63707); test: Inhibitory concentration tested against enzyme dihydroorotate dehydrogenase in rat
Dihydroorotate dehydrogenase (quinone), mitochondrial (Rattus norvegicus, UniProt Q63707), sequence (Q63707 whole entry): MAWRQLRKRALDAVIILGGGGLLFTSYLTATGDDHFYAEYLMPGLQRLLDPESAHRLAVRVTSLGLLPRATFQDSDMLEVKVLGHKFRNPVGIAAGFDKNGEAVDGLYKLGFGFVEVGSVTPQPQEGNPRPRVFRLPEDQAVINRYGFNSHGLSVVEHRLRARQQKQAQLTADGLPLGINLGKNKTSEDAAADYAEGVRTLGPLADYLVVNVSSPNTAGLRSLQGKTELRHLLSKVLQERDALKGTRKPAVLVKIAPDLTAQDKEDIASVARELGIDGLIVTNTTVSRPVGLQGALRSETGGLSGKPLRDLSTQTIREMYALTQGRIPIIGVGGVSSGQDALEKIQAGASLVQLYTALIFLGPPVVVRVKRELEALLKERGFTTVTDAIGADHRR

Dihydroorotate dehydrogenase (quinone), mitochondrial (Mus musculus, UniProt O35435), sequence (O35435 whole entry): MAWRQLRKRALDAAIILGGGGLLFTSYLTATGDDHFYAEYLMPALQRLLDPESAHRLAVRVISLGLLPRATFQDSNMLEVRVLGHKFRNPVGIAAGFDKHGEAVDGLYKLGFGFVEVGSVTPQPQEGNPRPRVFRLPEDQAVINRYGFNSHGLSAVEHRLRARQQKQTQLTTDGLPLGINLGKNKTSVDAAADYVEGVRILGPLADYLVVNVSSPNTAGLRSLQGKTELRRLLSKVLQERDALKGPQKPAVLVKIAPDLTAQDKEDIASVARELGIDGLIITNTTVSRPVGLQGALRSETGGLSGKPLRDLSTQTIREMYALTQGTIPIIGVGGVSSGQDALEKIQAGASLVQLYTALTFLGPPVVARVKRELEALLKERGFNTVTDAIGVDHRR

SMILES | IC50 [1] [µM] | IC50 [2] [µM]
CC=CC(=O)C(C#N)C(=O)Nc1ccc(C(F)(F)F)cc1 (centres undefined) | 0.063 | 
N#CC(C(=O)Nc1ccc(C(F)(F)F)cc1)C(=O)c1ccc(C(F)(F)F)cc1 (centres undefined) [2-Cyano-3-hydroxy-3,N-bis-(4-trifluoromethyl-phenyl)-acrylamide] | > 100 | > 100
N#CC(C(=O)Nc1ccccc1C(F)(F)F)C(=O)C1CC1 (centres undefined) [(Z)-2-Cyano-3-cyclopropyl-3-hydroxy-N-(2-trifluoromethyl-phenyl)-acrylamide] | > 100 | > 100

Second part, the compound after the results:

IC50 [1] [µM] | IC50 [2] [µM] | SMILES
> 100 | > 100 | CN1CCCC1C(=O)C(C#N)C(=O)Nc1ccc(C(F)(F)F)cc1 (centres undefined) [(Z)-2-Cyano-3-hydroxy-3-(1-methyl-pyrrolidin-2-yl)-N-(4-trifluoromethyl-phenyl)-acrylamide]
> 100 | > 100 | N#CC(C(=O)Nc1ccc(C(F)(F)F)cc1)C(=O)C1CCCN1 (centres undefined) [(Z)-2-Cyano-3-hydroxy-3-pyrrolidin-2-yl-N-(4-trifluoromethyl-phenyl)-acrylamide]
